In patent US20120231482A1, “METHOD, KIT OR DIAGNOSTIC FOR THE DETECTION OF REAGENTS WHICH INDUCE ALTERED CONTRACTILITY” (THE JOHNS HOPKINS UNIVERSITY, priority 2009, published 2012):

Assays:
[1] = target: T1, myosin heavy chain and light chain 1 (Rattus norvegicus, UniProt P02563+P16409); assay: Gel shift assay, reducing/non-reducing western blot of cardiac myofibrils; format: biochemical; conditions: non-reducing; lost with 5 mM DTT
T1 construct: 1 μg of rat cardiac myofibrils treated with HNO donors or control compounds; tissue Pel Freez Biologicals; host or cells: myofibrils from frozen rat ventricles
T1 sequence (P02563 whole entry): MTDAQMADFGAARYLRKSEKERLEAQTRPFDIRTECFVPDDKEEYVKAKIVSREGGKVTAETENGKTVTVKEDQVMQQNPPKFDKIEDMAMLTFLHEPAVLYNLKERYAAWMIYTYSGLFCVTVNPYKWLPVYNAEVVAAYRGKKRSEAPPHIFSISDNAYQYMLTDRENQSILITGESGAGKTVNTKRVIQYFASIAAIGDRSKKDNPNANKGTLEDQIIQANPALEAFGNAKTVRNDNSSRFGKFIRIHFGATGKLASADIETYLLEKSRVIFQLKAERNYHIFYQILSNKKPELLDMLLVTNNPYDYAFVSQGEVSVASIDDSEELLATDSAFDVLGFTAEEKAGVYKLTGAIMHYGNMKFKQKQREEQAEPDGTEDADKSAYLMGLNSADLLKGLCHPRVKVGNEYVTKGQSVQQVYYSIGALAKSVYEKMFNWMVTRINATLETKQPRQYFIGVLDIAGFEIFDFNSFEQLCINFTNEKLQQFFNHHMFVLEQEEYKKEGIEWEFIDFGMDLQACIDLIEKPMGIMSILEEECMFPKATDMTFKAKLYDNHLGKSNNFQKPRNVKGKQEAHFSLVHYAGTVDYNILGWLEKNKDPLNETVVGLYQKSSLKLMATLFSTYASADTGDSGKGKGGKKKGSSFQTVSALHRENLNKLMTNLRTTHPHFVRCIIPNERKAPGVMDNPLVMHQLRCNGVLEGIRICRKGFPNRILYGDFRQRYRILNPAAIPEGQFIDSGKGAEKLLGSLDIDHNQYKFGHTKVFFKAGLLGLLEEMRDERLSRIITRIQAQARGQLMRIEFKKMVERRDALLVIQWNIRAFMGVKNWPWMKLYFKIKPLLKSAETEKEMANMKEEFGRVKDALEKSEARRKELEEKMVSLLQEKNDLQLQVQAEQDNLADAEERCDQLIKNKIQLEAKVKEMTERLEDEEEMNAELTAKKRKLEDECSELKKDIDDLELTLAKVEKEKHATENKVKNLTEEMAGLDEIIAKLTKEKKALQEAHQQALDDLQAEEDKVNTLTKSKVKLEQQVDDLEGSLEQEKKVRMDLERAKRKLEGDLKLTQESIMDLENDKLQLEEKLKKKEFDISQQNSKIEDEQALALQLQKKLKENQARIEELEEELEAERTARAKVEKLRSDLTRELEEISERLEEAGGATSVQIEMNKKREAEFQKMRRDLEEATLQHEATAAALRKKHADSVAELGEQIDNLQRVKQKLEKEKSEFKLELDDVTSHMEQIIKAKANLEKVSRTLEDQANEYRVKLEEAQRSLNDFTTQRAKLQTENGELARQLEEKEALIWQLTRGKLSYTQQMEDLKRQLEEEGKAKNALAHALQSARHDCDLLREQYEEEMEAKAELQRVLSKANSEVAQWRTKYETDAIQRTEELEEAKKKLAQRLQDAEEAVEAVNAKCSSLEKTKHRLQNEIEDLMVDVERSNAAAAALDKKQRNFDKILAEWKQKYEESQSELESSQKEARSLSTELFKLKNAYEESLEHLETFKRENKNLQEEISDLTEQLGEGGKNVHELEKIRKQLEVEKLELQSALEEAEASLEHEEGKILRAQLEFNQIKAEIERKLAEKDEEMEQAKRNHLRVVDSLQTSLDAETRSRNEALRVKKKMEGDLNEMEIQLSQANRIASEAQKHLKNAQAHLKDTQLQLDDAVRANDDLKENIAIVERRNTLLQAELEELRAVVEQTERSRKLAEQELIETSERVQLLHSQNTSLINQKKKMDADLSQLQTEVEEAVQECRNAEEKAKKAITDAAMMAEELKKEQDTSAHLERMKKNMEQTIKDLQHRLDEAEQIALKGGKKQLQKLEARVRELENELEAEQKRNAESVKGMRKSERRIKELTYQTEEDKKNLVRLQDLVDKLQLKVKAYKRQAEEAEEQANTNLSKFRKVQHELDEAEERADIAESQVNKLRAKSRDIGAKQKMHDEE
T1 sequence (P16409 2-200 limits assumed): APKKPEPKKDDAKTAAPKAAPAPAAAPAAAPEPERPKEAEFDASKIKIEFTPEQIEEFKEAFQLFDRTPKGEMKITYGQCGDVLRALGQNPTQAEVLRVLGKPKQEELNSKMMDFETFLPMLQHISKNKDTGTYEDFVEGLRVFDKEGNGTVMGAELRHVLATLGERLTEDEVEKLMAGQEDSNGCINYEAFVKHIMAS
T1 sequence (P08733 2-166 partner limits assumed): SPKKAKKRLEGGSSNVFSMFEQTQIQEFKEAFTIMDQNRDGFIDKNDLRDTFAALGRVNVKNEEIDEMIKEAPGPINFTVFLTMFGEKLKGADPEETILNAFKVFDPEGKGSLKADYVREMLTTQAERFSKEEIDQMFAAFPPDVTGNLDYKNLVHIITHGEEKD
Procedure: (§1) FIG. 4. Validation and characterizations of HNO modifications. 1 μg of rat cardiac myofibrils treated with HNO donors or control compounds were separated under reducing or nonreducing conditions and western blots probed for candidate proteins tropomyosin, actin, myosin heavy chain, myosin light chain 1 (n=4). […] Silver stained gel analysis indicated a protein band with […] gel mobility that was lost with DTT.
(§2) Gel shift assay. 10 μg of rat myofibrils/treatment were diluted to 0.5 μg/μl in HEN including 0.1% (w/v) SDS and exposed to a treatment for 20 min at 37° C. Samples were diluted to 0.1 ug/ul in 1×LSD sample buffer, treated with 0, 5 or 100 mM DTT and separated by SDS PAGE. Proteins were silver stained or transferred to nitrocellulose and immunoblotted with primary antibodies for tropomyosin sarcomeric (CH1, Sigma-Aldrich Co., St. Louis, Mo., USA), actin (AC-40, Sigma-Aldrich Co., St. Louis, Mo., USA), myosin light chain 1 (MLM527, Abcam, Cambridge, Mass., USA) or myosin heavy chain (3-48, Abcam, Cambridge, Mass., USA). For some silver stained gel bands of interest in-gel digestion was done following the protocol outlined in Shevchenko et al.. Gel slices of interest were excised from the gels cut into 1 mm^3 pieces. Silver stained gel pieces were destained in 1:1(v/v) 30 mM Potassium ferricyanide and 100 mM Sodium thiosulfate and wash three times with ddH2O. […]

rat cardiac muscle = assay: Force and [Ca2+]i measurements in cardiac trabeculae; format: cell-based
Procedure: Force and [Ca^2+]i Measurements in Cardiac Trabeculae.
Rat hearts were exposed via midsternotomy after the animals were anesthetized with intraperitoneal injection of pentobarbital (100 mg/kg), and were then rapidly excised and aorta cannulated. The hearts were perfused retrogradely (˜15 ml/min) with high K^+ Krebs-Henseleit (H-K) solution equilibrated with 95% O2 and 5% CO2. Trabeculae were quickly dissected from the right ventricles of the hearts and mounted between a force transducer and a motor arm. The muscles were superfused with K-H solution at a rate of ˜10 ml/min and stimulated at 0.5 Hz. Force was measured using a force transducer system (SI, Germany) and expressed in mN/mm^2. Sarcomere length was measured by laser diffraction. Fura-2 potassium salt was microinjected iontophoretically into one cell and allowed to spread throughout the whole muscle (via gap junctions). The epifluorescence of fura-2 was measured by exciting at 380 and 340 nm. The fluorescent light was collected at 510 nm by a photomultiplier tube (R1527, Hamamatsu). [Ca^2+]i was given by (after subtraction of the autofluorescence): [Ca^2+]i=K′d(R-Rmin)/(Rmax-R), where R is the observed ratio of fluorescence (340/380), K′d is the apparent dissociation constant, Rmax is the ratio of 340 nm/380 nm at saturating [Ca^2+], and Rmin is the ratio of 340 nm/380 nm at zero [Ca^2+]. The values of K′d, Rmax, and Rmin were determined by in vivo calibrations. Tetanization of the trabecula was achieved by addition of ryanodine (1.0 μmol/L) and by increasing the stimulus rate to 10 Hz briefly (˜3 sec) to obtain steady-state force-[Ca^2+] relations. Different levels of tetanized force will be obtained by increasing [Ca^2+] in the perfusate (up to 20-25 mmol/L). The data will be fitted with the Hill equation: F=Fmax[Ca^2+]in/(K1/2n+[Ca^2+]in), where Fmax is the maximal force. K1/2 is [Ca^2+]i at half Fmax, and n is the Hill coefficient.
1-nitrosocyclohexylacetate (NCA) is a new and mechanistically unique HNO donor that has been recently synthesized.

tropomyosin = target: T2, tropomyosin (Rattus norvegicus, UniProt P04692); assay: Gel shift assay, reducing/non-reducing western blot of cardiac myofibrils; format: biochemical; conditions: non-reducing; lost with 5 mM DTT
T2 construct: Rat myofibrillar preparations, as described in [7], were obtained from frozen ventricles (Pel Freez Biologicals); tissue Pel Freez Biologicals; host or cells: myofibrils from frozen rat ventricles
T2 sequence (P04692 whole entry): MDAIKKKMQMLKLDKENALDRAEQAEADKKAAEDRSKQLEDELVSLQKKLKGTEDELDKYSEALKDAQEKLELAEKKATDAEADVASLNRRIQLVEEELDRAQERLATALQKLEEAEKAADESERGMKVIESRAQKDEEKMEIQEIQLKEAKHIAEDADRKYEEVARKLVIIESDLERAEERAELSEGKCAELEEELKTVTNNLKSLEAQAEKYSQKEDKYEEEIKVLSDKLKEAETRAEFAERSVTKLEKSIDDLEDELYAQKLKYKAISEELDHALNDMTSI
Procedure: as §1
FIG. 5. Evaluation of the interaction between actin and tropomyosin with NCA treatment. Purified rabbit skeletal tropomyosin (0.03 μg) and isolated rat cardiac myofibrils (1 μg) were treated with NCA or AS and evaluated by 1D non-reducing western blot probing for tropomyosin (A) and actin (B) (n=3). […] (C) Fluorescent DIGE analysis of samples from A and B independent labeled indicates NCA specific band (green) above purified TM (blue) and below AS treated myofibrils (red) (n=3). (D) MS analysis of the same gel region identified both tropomyosin and actin in non-reduced lane but not with DTT treatment (n=2).
as §2, with “ddH2O. Gel pieces were dehydrated in 100% acetonitrile and reswelled in 10 mM DTT and incubated at 55° C. for 1 hour. After the DTT solution was removed, a solution of 55 mM iodoacetimide was added and gel slices were incubated at room temperature protected from light. Gel slices were then washed 3 times with 50% (v/v) ACN, 25 mM (NH4)HCO3 and then fully dehydrated in 100% ACN and dried in a speed vac. Gel pieces were reswelled in a 12.5 ng/μL trypsin (Promega, Madison Wis. USA) solution containing 25 mM (NH4)HCO3 and incubated at 37° C. for >16 hours. Digested peptides were extracted by addition of 5% (v/v) formic acid and incubation for 15 min followed by addition of an equal volume of 100% ACN and 15 min incubation, this step was repeated and the extracts were combined.” for “ddH2O.”

[2] = 20˜100 μmol/L, 0.5 mmol/L [Ca2+]o
[3] = NCA 100 μmol/L, isolated cardiac muscle
[4] = in the presence of NCA, varied external Ca2+

Row | Compound | MLC1 homodimer population [1] [kDa] | diastolic force (rat cardiac muscle; [2]) | force development (rat cardiac muscle; [2]) | Ca2+ transient (rat cardiac muscle; [3]) [µmol/L] | force (rat cardiac muscle; [3]) [mN/mm²] | diastolic Ca2+ (rat cardiac muscle; dose-response) | amplitude of intracellular Ca2+ transients (rat cardiac muscle; [4]) | systolic force at any given external Ca2+ (rat cardiac muscle; [4]) | Force-frequency relationship (rat cardiac muscle; without rising [Ca2+]i) | tropomyosin molecular weight shift (tropomyosin)
1 | [Na+].[Na+].[O-][N+]([O-])=NO [AS, Angeli's Salt] | ~50 | – | – | – | – | – | – | – | – | –
2 | CC(=O)OC1(N=O)CCCCC1 [NCA, 1-nitrosocyclohexylacetate] | ~50 | no changes | increases force development in a dose dependent manner | 0.39 ± 0.08 | 32.3 ± 4.8 | increased only at high doses | not different from control | remained significantly higher | enhanced | higher molecular weight species that was specific for NCA treatment
